Format in all cases: in vivo
The test system of assay [1] is mice. As to the kind of experiment: Fighting behaviour test on mice (method of Tedeschi et al.). The settings on record: for ED50: Mus musculus, po, mice; for "Fighting behaviour" test on mice, relative activity: relative to Grandaxin (1.0), from ED50 p.o. Here is the method:
(§1) The tests were performed on mice. In the examination of the general behaviour the animals were treated intraperitoneally with 100 mg/kg or orally with 200 mg/kg of the compound in question. The fighting behaviour test was performed according to the method of Tedeschi et al. (J. Pharm. Exp. Ther. 25, 28 /1959/). The observations concerning the general behaviour of the animals and the ED50 values obtained in the fighting behaviour test are summarized in Table 1. In these tests 1-(3,4-dimethoxyphenyl)-4-methyl-5-ethyl-7,8-dimethoxy-5H-2,3-benzodiazepine (Grandaxin) was applied as reference substance.

Assay [2] has as its system mice. As to the kind of experiment: General behaviour of mice. The conditions noted are these: 100 mg/kg i.p. and, resp., 200 mg/kg p.o., SMA = spontaneous motor activity. Here is the method: These compounds decrease the spontaneous motor activity and potentiate the effect of narcotics.
as §1

In assay [3] the test system is mice. As to the kind of experiment: Narcosis potentiating activity on mice (sodium hexobarbital narcosis). The settings on record: for Narcosis potentiating activity on mice, Relative activity: relative to Grandaxin (1.0). Here is the method: When studying the narcosis potentiating effect, the benzodiazepine compounds were administered to mice in oral dosages of 12.5, 25, 50 or 100 mg/kg, and 30 minutes later 50 mg/kg of sodium hexobarbital were injected intravenously into the animals. The percentage prolongation of the narcosis period, compared to the value observed in the control group treated with sodium hexobarbital alone, was calculated. In these tests Grandaxin was applied again as reference substance.

The mark [4] stands for this setting: Mus musculus, po, 25 mg/kg p.o., 30 minutes before 50 mg/kg sodium hexobarbital i.v., prolongation vs control, read-out: Narcosis potentiating activity on mice, Increase, %.
Where [5] appears, read: Mus musculus, po, 50 mg/kg p.o., 30 minutes before 50 mg/kg sodium hexobarbital i.v., prolongation vs control, read-out: Narcosis potentiating activity on mice, Increase, %.
Setting [6] is: Mus musculus, po, 12.5 mg/kg p.o., 30 minutes before 50 mg/kg sodium hexobarbital i.v., prolongation vs control, read-out: Narcosis potentiating activity on mice, Increase, %.

One may read the ED50 as the dose at which the effect has come halfway, by size or by number of responders.

SMILES strings stand for the structures.

Consider `CCC1C(C)=NN=C(c2cccc(F)c2)c2cc(OC)c(OC)cc21` (stereo not drawn) [Example 42, 1-(3-Fluorphenyl)-4-methyl-5-ethyl-7,8-dimethoxy-5H-2,3-benzodiazepine], for which, in the assay with mice [1], the 50% effect level (ED50) was put at a dose of 40 mg/kg and the “"Fighting behaviour" test on mice, relative activity” value came to 1.6. Moreover, in the assay with mice [2], the General behaviour entry is reported as “Decrease of SMA”. In addition, the “Narcosis potentiating activity on mice, Relative activity” value with mice [3] (25 mg/kg p.o.) is 2.52. In the assay on mice [3] (50 mg/kg p.o.), the “Narcosis potentiating activity on mice, Relative activity” value is on record as 3.04. For the same compound, in the assay with mice [3] (setting [4]), the change in vivo at 25 mg/kg was 204%. Besides, the change in vivo at 50 mg/kg in the assay on mice [3] (setting [5]) was determined as 347%.
On to `COc1cc2c(cc1OC)C(c1ccccc1OC)=NN=C(C)C2` [Example 43, 1-(2-Methoxyphenyl)-4-methyl-7,8-dimethoxy-5H-2,3-benzodiazepine], for which, in the assay with mice [1], the ED50 worked out at 36 mg/kg and the “"Fighting behaviour" test on mice, relative activity” value worked out at 1.8. In the assay with mice [2], the General behaviour entry was “Decrease of SMA”. Moreover, the “Narcosis potentiating activity on mice, Relative activity” value in the assay with mice [3] (25 mg/kg p.o.) stood at 2.89. Also, the change in vivo at 25 mg/kg in the assay with mice [3] (setting [4]) stood at 234%.
For the compound `COc1cc2c(cc1OC)C(c1cccc(C(F)(F)F)c1)=NN=C(C)C2` [Example 44, 1-(3-Trifluoromethyl-phenyl)-4-methyl-7,8-dimethoxy-5H-2,3-benzodiazepine], in the assay on mice [1], the ED50 is 22 mg/kg and the “"Fighting behaviour" test on mice, relative activity” value came to 2.9. Besides, the General behaviour result in the assay with mice [2] was “Strong decrease of SMA”. The “Narcosis potentiating activity on mice, Relative activity” value in the assay on mice [3] (12.5 mg/kg p.o.) was determined as 8.82. Also, in the assay with mice [3] (25 mg/kg p.o.), the “Narcosis potentiating activity on mice, Relative activity” value was determined as 3.63. Besides, in the assay on mice [3] (setting [6]), the change in vivo at 12.5 mg/kg was 150%. Further, the change in vivo at 25 mg/kg in the assay with mice [3] (setting [4]) was found to be 294%.
Turning to `COc1cc2c(cc1OC)C(c1ccco1)=NN=C(C)C2` [Example 45, 1-(2-Furyl)-4-methyl-7,8-dimethoxy-5H-2,3-benzodiazepine], in the assay on mice [1], the ED50 came to 50 mg/kg and the “"Fighting behaviour" test on mice, relative activity” value was 1.3. Also, in the assay with mice [2], the General behaviour result is given as “Decrease of SMA”. The “Narcosis potentiating activity on mice, Relative activity” value in the assay on mice [3] (25 mg/kg p.o.) was 3.09. For the same compound, in the assay on mice [3] (setting [4]), the change in vivo at 25 mg/kg came out at 250%.
Turning to `COc1cccc(C2=NN=C(C)Cc3cc(OC)c(OC)cc32)c1` [Example 46, 1-(3-Methoxyphenyl)-4-methyl-7,8-dimethoxy-5H-2,3-benzodiazepine], in the assay with mice [1], the 50% effect level (ED50) was put at a dose of 50 mg/kg and the “"Fighting behaviour" test on mice, relative activity” value worked out at 1.3. In addition, the General behaviour result in the assay on mice [2] is “Strong decrease of SMA”. In addition, the “Narcosis potentiating activity on mice, Relative activity” value in the assay with mice [3] (12.5 mg/kg p.o.) is given as 8.24. Further, in the assay with mice [3] (25 mg/kg p.o.), the “Narcosis potentiating activity on mice, Relative activity” value was 3.70. Also, the change in vivo at 12.5 mg/kg with mice [3] (setting [6]) was found to be 140%. For the same compound, the change in vivo at 25 mg/kg in the assay with mice [3] (setting [4]) is 300%.
In turn, `CCC1C(C)=NN=C(c2ccc(OC)c(OC)c2)c2cc(OC)c(OC)cc21` (stereo not drawn) [Grandaxin, 1-(3,4-dimethoxyphenyl)-4-methyl-5-ethyl-7,8-dimethoxy-5H-2,3-benzodiazepine, reference compound] displayed an ED50 in the assay with mice [1] of 64 mg/kg. Moreover, in the assay on mice [1], the “"Fighting behaviour" test on mice, relative activity” value is reported as 1.0. Further, the General behaviour entry in the assay on mice [2] is given as “Decrease of SMA”. In addition, the “Narcosis potentiating activity on mice, Relative activity” value in the assay with mice [3] (12.5 mg/kg p.o.), with mice [3] (25 mg/kg p.o.), in the assay on mice [3] (50 mg/kg p.o.) and in the assay on mice [3] (100 mg/kg p.o.) was 1.0 throughout. Also, in the assay with mice [3] (setting [6]), the change in vivo at 12.5 mg/kg was 17%. In the assay with mice [3] (setting [4]), the change in vivo at 25 mg/kg is 81%. In addition, the change in vivo at 50 mg/kg in the assay on mice [3] (setting [5]) was determined as 114%. Further, the change in vivo at 100 mg/kg with mice [3] (Mus musculus, po, 100 mg/kg p.o., 30 minutes before 50 mg/kg sodium hexobarbital i.v., prolongation vs control, read-out: Narcosis potentiating activity on mice, Increase, %) was determined as 239%.

The values are drawn from patent US4322346A, “5H-2,3-Benzodiazepine derivatives” (priority 1978, dated 1982).
